Key:
B. theta = assay: RNA-seq after MTX treatment; format: cell-based, Bacteroides thetaiotaomicron; details: MTX 100 μg/ml
Procedure: (§1) Genomes were obtained from NCBI's GenBank Assembly database. Culture media was composed of BHI+and allowed to equilibrate in an anaerobic environment prior to use. Briefly, bacteria were cultured in BHI+at 37° C. in an anaerobic chamber. Cultures for each isolate were grown to mid-exponential (achieving an OD600˜0.5), aliquoted into triplicates, treated for 30 minutes with either DMSO or MTX 100 μg/ml, and then removed from the anaerobic chamber. […]
(§2) Total RNA was subjected to rRNA depletion using Ribo-Zero Bacterial rRNA Depletion (Illumina, catalog #: MRZB12424), following the manufacturer's protocol. […] For each sample, fastq files are available in NCBI's Sequence Read Archive (SRA), accession number PRJNA656577.
(§3) Reads were trimmed using Trimmomatic (v0.32) (Bolger, A. M., et al., (2014), Bioinformatics 30, 2114-2120), and ribosomal reads were removed using SortMeRNA (v2.1) (Kopylova, E., et al., (2012), Bioinformatics 28, 3211-3217). Reads were mapped to reference genomes using Bowtie2 (Langmead, B., and Salzberg, S. L. (2012), Nat Methods 9, 357-359) using the following options: -q, —met file, —end-to-end, —sensitive. […]

C. symbiosum = assay: RNA-seq after MTX treatment; format: cell-based, Clostridium symbiosum; details: MTX 100 μg/ml, 30 minutes; padj<0.2, DESeq
Procedure: as §1, §2, §3

[1] = Targeted LC-MS for MTX in RA donor stool samples used for fecal transplant; parameters: species or system human; details: limit of quantification 100 nM
[2] = MTX 1 mg/kg or 50 mg/kg daily, short treatment durations (2-4 days)
Text: C57BL/6J mice (females, ages 6-16 weeks) were obtained from the UCSF Gnotobiotics core facility (gnotobiotics.ucsf.edu) and housed in gnotobiotic isolators for the duration of each experiment (Class Biologically Clean). […] Housing: Mice were co-housed in some experiments, distributed across multiple cages per treatment group, or individually housed. Individually housed mice were housed in Single Mouse Duplexed Cages (Thoren, Cat #15). Colonization: Mice were colonized with stool from human donors, either a healthy male donor or a treatment-naive (re-MTX) female and male donors with rheumatoid arthritis [as defined by American College of Rheumatology classification criteria, either (Arnett, F. C., et al. (1988), Arthritis Rheum 31, 315-324) or (Aletaha, D., et al. (2010), Arthritis Rheum 62, 2569-2581)]; samples obtained 1 month after starting MTX were used for “post-MTX” transplants. For colonization with a human microbiome, stool was diluted 1:10 g/mL in reduced PBS or saline and homogenized in an anaerobic chamber using pre-equilibrated reagents and supplies. Insoluble material was separated from supernatant by centrifugation at 50 g for 1 minute. Aliquots of supernatant (100-200 μl per mouse) were gavaged into mice. […] Mice were monitored and weighed daily during treatment. […]

## CN(Cc1cnc2nc(N)nc(N)c2n1)c1ccc(C(=O)N[C@@H](CCC(=O)O)C(=O)O)cc1 [MTX, methotrexate]
B. theta; 30 minutes, padj<0.2, DESeq
  genes in the transcriptome affected: 83%
B. theta; transcripts with padj<0.2
  number of pathways enriched among differentially expressed transcripts: 57 pathways
C. symbiosum
  number of differentially expressed genes: 55 genes
[1]
  MTX in pre-MTX and post-MTX stool samples from RA donors: not detected
[2]
  weight loss: minimal weight loss
